Reference: patent US20150225369A1, “DDR2 INHIBITORS FOR THE TREATMENT OF OSTEOARTHRITIS” (Merck Patent GmbH, priority 2012, published 2015)
Like-named read-outs stand apart in the source and are kept apart here.

Columns and labels:
[1] = molecular target: T1, His-tagged human recombinant DDR-2 kinase domain (His-TEV-DDR2 467-855 aa) (Homo sapiens, UniProt Q16832); experiment: Autophosphorylation assay for biochemical activity testing of DDR2 (HTRF)
T1 construct: His-TEV-DDR2 467-855 aa
T1 sequence (Q16832 467-855): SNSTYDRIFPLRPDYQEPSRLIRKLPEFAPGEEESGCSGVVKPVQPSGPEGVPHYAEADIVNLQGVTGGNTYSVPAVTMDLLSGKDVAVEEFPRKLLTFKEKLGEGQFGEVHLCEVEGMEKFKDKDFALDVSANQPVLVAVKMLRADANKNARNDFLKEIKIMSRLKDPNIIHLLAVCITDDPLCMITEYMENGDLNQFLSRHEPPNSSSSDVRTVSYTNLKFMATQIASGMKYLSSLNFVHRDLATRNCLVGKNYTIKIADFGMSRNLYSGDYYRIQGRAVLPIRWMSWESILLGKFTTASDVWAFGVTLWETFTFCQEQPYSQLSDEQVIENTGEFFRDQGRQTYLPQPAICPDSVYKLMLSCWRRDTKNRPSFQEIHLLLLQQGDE
Procedure, shortened: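 Phospho-tyrosine was detected by HTRF between XL665 anti-6His and cryptate anti-phosphotyrosine PT66 antibodies, using the emission ratio. Inhibition was referenced to the inhibitor-free reaction.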

[2] = molecular target: T2, HEK293 transfected with human DDR2 (Homo sapiens, UniProt Q16832); experiment: Phospho-DDR2 cellular assay (collagen II induced DDR2 phosphorylation, ELISA); format: cell-based; conditions: read-out: IC50 [p-DDR2]
T2 construct: expressed in transfected cells; host or cells: HEK293 (PLT460F_(DDR2)-P7-1)
T2 sequence (Q16832 22-855): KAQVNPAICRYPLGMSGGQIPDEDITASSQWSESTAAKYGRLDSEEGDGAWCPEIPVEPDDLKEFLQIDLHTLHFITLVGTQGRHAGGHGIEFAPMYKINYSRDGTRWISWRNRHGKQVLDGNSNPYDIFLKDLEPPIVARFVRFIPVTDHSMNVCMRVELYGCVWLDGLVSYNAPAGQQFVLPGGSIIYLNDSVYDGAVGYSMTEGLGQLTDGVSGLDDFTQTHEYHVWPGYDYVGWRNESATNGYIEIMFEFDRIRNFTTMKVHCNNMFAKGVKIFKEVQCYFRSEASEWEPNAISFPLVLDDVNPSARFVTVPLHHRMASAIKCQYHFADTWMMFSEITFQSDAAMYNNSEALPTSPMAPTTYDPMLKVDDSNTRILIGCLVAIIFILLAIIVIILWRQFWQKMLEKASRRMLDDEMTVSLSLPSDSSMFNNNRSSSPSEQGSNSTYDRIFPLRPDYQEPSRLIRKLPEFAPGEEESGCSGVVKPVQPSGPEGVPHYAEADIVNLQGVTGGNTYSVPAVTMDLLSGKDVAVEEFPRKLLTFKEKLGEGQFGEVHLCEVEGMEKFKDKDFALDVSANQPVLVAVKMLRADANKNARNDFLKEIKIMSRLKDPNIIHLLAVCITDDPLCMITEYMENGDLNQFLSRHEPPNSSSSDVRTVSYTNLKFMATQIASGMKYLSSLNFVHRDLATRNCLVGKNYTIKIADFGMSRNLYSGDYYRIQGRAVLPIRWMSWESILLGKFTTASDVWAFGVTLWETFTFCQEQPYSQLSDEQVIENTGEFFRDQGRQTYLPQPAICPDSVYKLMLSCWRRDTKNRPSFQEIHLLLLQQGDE
Protocol: Assays were performed in a 384 well plate format, using cell line HEK293 transfected with human DDR2 (PLT460F_(DDR2)-P7-1)
Cells were seeded at a density of 10'000 cells/well in 384well poly-D-lysine coated Black/clear plate (Cellcoat Greiner) and incubated in DMEM medium in the presence of 10% fetal bovine serum at 37° C., 5% CO2 for 48 h. Medium was replaced by serum-free medium and cells were incubated at 37° C., 5% CO2 for 8 h. Compound to be tested in 5% DMSO or 5% DMSO and 50 μg/ml of chicken collagen II were added and cells were incubated at 37° C., 5% CO2 for 16 h
Cells were rinsed with ice-cold PBS, lysed with lysis buffer (M-PER Thermo #78501) for 30 min at room temperature and centrifuged for 1 min at 1000 RPM. In parallel, White High binding 384 well plates (Corning) were coated with mouse anti-human DDR2 capture antibody (R&D Systems kit DuoSet IC Human phospho-DDR2 ELISA), overnight at RT.
An aliquot of cell lysate was transferred to the coated plates and incubated for 2 h at RT. Plates were washed and mouse anti-phospho-tyrosine detection antibody (R&D Systems kit DuoSet IC Human phospho-DDR2 ELISA) conjugated to horse radish peroxidase (HRP) was added for 2 h at RT. Plates were washed and chemiluminescent substrate for HRP (Thermo) was added for 15 min at RT. Luminescence was measured on a luminometer.

[3] = biochemical DDR2 autophosphorylation

Compound | IC50 [1, 3] [nM] | IC50 ([2]; cellular phospho-DDR2) [nM] | IC50 ([1]; 4 nM DDR2 kinase domain, 150 μM ATP, 150 min at 22° C.) [nM] | IC50 ([2]; HEK293 transfected with human DDR2, 50 μg/ml chicken collagen II, 16 h) [nM]
CNC(=O)c1cc(Oc2ccc(CNC(=O)Nc3cc(C)c(Cl)cc3OCCN(C)C)cc2C)ccn1 [compound 139, 4-(4-{3-[4-Chloro-2-(2-dimethylamino-ethoxy)-5-methyl-phenyl]-ureidomethyl}-2-methyl-phenoxy)-pyridine-2-carboxylic acid methylamide] | 26 | 18 |  | 
CNC(=O)c1cc(Oc2ccc(CNC(=O)Nc3cc(C)cnc3Cl)cc2C)ccn1 [compound 25] |  |  | 410 | 87
CNC(=O)c1cc(Oc2ccc(CNC(=O)Nc3cc(C(F)(F)F)ccc3OCCN(C)C)cc2C)ccn1 [compound 150, 4-(4-{3-[2-(2-Dimethylamino-ethoxy)-5-trifluoromethyl-phenyl]-ureidomethyl}-2-methyl-phenoxy)-pyridine-2-carboxylic acid methylamide] | 42 | 10 |  | 
CNC(=O)c1cc(Oc2ccc(CNC(=O)Nc3cc(C)c(Cl)cc3OCCCN(C)C)cc2)ccn1 [compound 153, 4-(4-{3-[4-Chloro-2-(3-dimethylamino-propoxy)-5-methyl-phenyl]-ureidomethyl}-phenoxy)-pyridine-2-carboxylic acid methylamide] | 140 | 55 |  | 
CNC(=O)c1cc(Oc2ccc(CNC(=O)Nc3cc(C(F)(F)F)ccc3OCC3CCCN3)cc2)ccn1 (centres unmarked) [compound 156, 4-(4-{3-[2-(Pyrrolidin-2-ylmethoxy)-5-trifluoromethyl-phenyl]-ureidomethyl}-phenoxy)-pyridine-2-carboxylic acid methylamide] | 43 | 16 |  | 
CNC(=O)c1cc(Oc2ccc(CNC(=O)Nc3cc(C(F)(F)F)ccc3OCCN)cc2C)ccn1 [compound 155, 4-(4-{3-[2-(2-Amino-ethoxy)-5-trifluoromethyl-phenyl]-ureidomethyl}-2-methyl-phenoxy)-pyridine-2-carboxylic acid methylamide] | 40 | 18 |  | 
CNC(=O)c1cc(Oc2ccc(CNC(=O)Nc3cc(C(F)(F)F)ccc3OCC(N)=O)cc2)ccn1 [compound 190, 4-{4-[3-(2-Carbamoylmethoxy-5-trifluoromethyl-phenyl)-ureidomethyl]-phenoxy}-pyridine-2-carboxylic acid methylamide] | 120 | 40 |  | 
CNC(=O)c1cc(Oc2ccc(CNC(=O)Nc3cc(C)c(Cl)cc3OCCN(C)C)cc2)ccn1 [compound 118, 4-(4-{3-[4-Chloro-2-(2-dimethylamino-ethoxy)-5-methyl-phenyl]-ureidomethyl}-phenoxy)-pyridine-2-carboxylic acid methylamide] | 200 | 55 |  | 
CNC(=O)c1cc(Oc2ccc(CNC(=O)Nc3cc(C(F)(F)F)ccc3OCCNC(C)C)cc2)ccn1 [compound 172, 4-(4-{3-[2-(2-Isopropylamino-ethoxy)-5-trifluoromethyl-phenyl]-ureidomethyl}-phenoxy)-pyridine-2-carboxylic acid methylamide] | 140 | 31 |  | 
CNC(=O)c1cc(Oc2ccc(CNC(=O)Nc3cc(C)c(Cl)cc3OC3CCNCC3)cc2)ccn1 [compound 124, 4-(4-{3-[4-Chloro-5-methyl-2-(piperidin-4-yloxy)-phenyl]-ureidomethyl}-phenoxy)-pyridine-2-carboxylic acid methylamide] | 66 | 40 |  | 
CNC(=O)c1cc(Oc2ccc(C(C)NC(=O)Nc3cc(Cl)c(Cl)cc3Cl)cc2)ccn1 (centres unmarked) [compound 70, 4-(4-{1-[3-(2,4,5-Trichloro-phenyl)-ureido]-ethyl}-phenoxy)-pyridine-2-carboxylic acid methylamide] |  | 735 |  | 
CNC(=O)c1cc(Oc2ccc(CNC(=O)Nc3ccc(N4CCOCC4=O)c(Cl)c3)cc2)ccn1 [compound 225, 4-(4-{3-[3-Chloro-4-(3-oxo-morpholin-4-yl)-phenyl]-ureidomethyl}-phenoxy)-pyridine-2-carboxylic acid methylamide] |  | 8800 |  | 
O=C(NCc1ccc(Oc2ccnc(C(=O)O)c2)cc1)Nc1ccc(Cl)c(C(F)(F)F)c1 [compound 99, 4-{4-[3-(4-Chloro-3-trifluoromethyl-phenyl)-ureidomethyl]-phenoxy}-pyridine-2-carboxylic acid] |  | 2850 |  | 
CNC(=O)c1cc(Oc2ccc(CNC(=O)Nc3ccc(OC)c(Cl)c3)cc2)ccn1 [compound 39, 4-{4-[3-(3-Chloro-4-methoxy-phenyl)-ureidomethyl]-phenoxy}-pyridine-2-carboxylic acid methylamide] |  | 64 |  | 
CNCCNC(=O)c1cc(Oc2ccc(CNC(=O)Nc3ccc(Cl)c(C(F)(F)F)c3)cc2)ccn1 [compound 149, 4-{4-[3-(4-Chloro-3-trifluoromethyl-phenyl)-ureidomethyl]-phenoxy}-pyridine-2-carboxylic acid (2-methylamino-ethyl)-amide] |  | 925 |  | 
CNC(=O)c1cc(Oc2ccc(CNC(=O)Nc3cc(C(F)(F)F)ccc3CN)cc2C)ccn1 [compound 221, 4-{4-[3-(2-Aminomethyl-5-trifluoromethyl-phenyl)-ureidomethyl]-2-methyl-phenoxy}-pyridine-2-carboxylic acid methylamide] |  | 180 |  | 
CNC(=O)c1cc(Oc2ccc(CNC(=O)Nc3cc(C(C)(C)C)n[nH]3)cc2)ccn1 [compound 223, 4-{4-[3-(5-tert-Butyl-2H-pyrazol-3-yl)-ureidomethyl]-phenoxy}-pyridine-2-carboxylic acid methylamide] |  | 7950 |  | 
CNC(=O)c1cc(Oc2ccc(CNC(=O)Nc3cc(C(F)(F)F)ccc3CC(N)=O)cc2C)ccn1 [compound 207, 4-{4-[3-(2-Carbamoylmethyl-5-trifluoromethyl-phenyl)-ureidomethyl]-2-methyl-phenoxy}-pyridine-2-carboxylic acid methylamide] |  | 285 |  | 
CNC(=O)c1cc(Oc2ccc(C(C)NC(=O)Nc3ccc(Cl)c(Cl)c3)cc2)ccn1 (centres unmarked) [compound 71, 4-(4-{1-[3-(3,4-Dichloro-phenyl)-ureido]-ethyl}-phenoxy)-pyridine-2-carboxylic acid methylamide] |  | 1800 |  | 
CNC(=O)c1cc(Oc2ccc(CNC(=O)Nc3nnc(C(F)(F)F)s3)cc2)ccn1 [compound 222, 4-{4-[3-(5-Trifluoromethyl-[1,3,4]thiadiazol-2-yl)-ureidomethyl]-phenoxy}-pyridine-2-carboxylic acid methylamide] |  | 575 |  | 
CNC(=O)c1cc(Oc2ccc(CNC(=O)Nc3cc(C(F)(F)F)ccc3CC(=O)O)cc2C)ccn1 [compound 220, (2-{3-[3-Methyl-4-(2-methylcarbamoyl-pyridin-4-yloxy)-benzyl]-ureido}-4-trifluoromethyl-phenyl)-acetic acid] |  | 23500 |  | 
CNC(=O)c1cc(Oc2ccc(CNC(=O)Nc3cccc(NS(C)(=O)=O)c3)cc2C)ccn1 [compound 167, 4-{4-[3-(3-Methanesulfonylamino-phenyl)-ureidomethyl]-2-methyl-phenoxy}-pyridine-2-carboxylic acid methylamide] |  | 1500 |  | 
